Data from patent US20070179060A1, “6-(Poly-substituted aryl)-4-aminopicolinates and their use as herbicides” (priority 2006, published 2007).

Experiments:
Assay type in all cases: in vivo
Papaver rhoeas = test: Postemergence herbicidal safening in cereal crops; conditions: Table 5, applied alone, after 3 weeks
Protocol: (§1) Seeds of the desired test plant species were planted in Sun Gro MetroMix® 306 planting mixture, which typically has a pH of 6.0 to 6.8 and an organic matter content of about 30 percent, in plastic pots with a surface area of 103.2 square centimeters. When required to ensure good germination and healthy plants, a fungicide treatment and/or other chemical or physical treatment was applied. The plants were grown for 7-36 days in a greenhouse with an approximate 14 hour photoperiod which was maintained at about 18° C. during the day and 17° C. during the night. Nutrients and water were added on a regular basis and supplemental lighting was provided with overhead metal halide 1000-Watt lamps as necessary. The plants were employed for testing when they reached the second or third true leaf stage. Treatments consisted of compound 42 and cloquintocet-mexyl alone and in combination. Weighed amounts were placed in 25 mL glass vials and dissolved in a volume of 97:3 v/v acetone/DMSO to obtain 9 mg ai/mL stock solutions. […] A dilution solution was prepared by mixing 1 volume of 97:3 v/v acetone/DMSO and 2 volumes of an aqueous mixture containing acetone, water, isopropyl alcohol, DMSO, Agri-dex crop oil concentrate, and Triton® X-77 surfactant in a 64.7:26.0:6.7:2.0:0.7:0.01 v/v ratio. Compound requirements are based upon a 12 mL application volume at a rate of 187 L/ha. […] Formulated compounds were applied to the plant material with an overhead Mandel track sprayer equipped with a […] nozzles calibrated to deliver 187 L/ha over an application area of 0.503 square meters at a spray height of 18 inches (43 cm) above average plant canopy height. Control plants were sprayed in the same manner with the solvent blank. The treated plants and control plants were placed in a greenhouse as described above and watered by sub-irrigation to prevent wash-off of the test compounds. After 3 weeks the condition of the test plants as compared with that of the untreated plants was determined visually and scored on a scale of 0 to 100 percent where 0 corresponds to no injury and 100 corresponds to complete kill. Colby's equation was used to determine the herbicidal effects expected from the mixtures (Colby, S. R. 1967. Calculation of the synergistic and antagonistic response of herbicide combinations. Weeds 15:20-22.). The following equation was used to calculate the expected activity of mixtures containing two active ingredients, A and B: Expected=A+B-(A×B/100) • A=observed efficacy of active ingredient A at the same concentration as used in the mixture. • B=observed efficacy of active ingredient B at the same concentration as used in the mixture.

Galium aparine = test: Postemergence herbicidal safening in cereal crops; conditions: Table 5, applied alone, after 3 weeks
Protocol: as §1

[1] = tested on: Hordeum vulgare (winter barley); test: Postemergence herbicidal safening in cereal crops; conditions: Table 5, applied alone, after 3 weeks
Protocol: as §1

[2] = tested on: Triticum aestivum (spring wheat); test: Postemergence herbicidal safening in cereal crops; conditions: Table 5, applied alone, after 3 weeks
Protocol: as §1

Matricaria chamomilla = test: Postemergence herbicidal activity of mixtures in cereal crops; conditions: after 3 weeks
Protocol: (§2) Seeds of the desired test plant species were planted and reared as described in “Evaluation of Postemergence Herbicidal Safening in Cereal Crops” (section 37).
(§3) Treatments consisted of compound (as listed in Tables 6 and 7), fluroxypyr methylheptyl ester (MHE), and clopyralid monoethanolamine (MEA) salt alone and in combination. Weighed amounts were placed in 25 mL glass vials and dissolved in a volume of 97:3 v/v acetone/DMSO to obtain 4.5 mg ai/mL stock solutions. […] The concentrated stock solutions were diluted to 1.5 mg ai/mL with the addition of 2 volumes of an aqueous mixture containing acetone, water, isopropyl alcohol, DMSO, Agri-dex crop oil concentrate, and Triton® X-77 surfactant in a 64.7:26.0:6.7:2.0:0.7:0.01 v/v ratio. A dilution solution was prepared by mixing 1 volume of 97:3 v/v acetone/DMSO and 2 volumes of an aqueous mixture containing acetone, water, isopropyl alcohol, DMSO, Agri-dex crop oil concentrate, and Triton® X-77 surfactant in a 64.7:26.0:6.7:2.0:0.7:0.01 v/v ratio. Compound requirements are based upon a 12 mL application volume at a rate of 187 L/ha. Spray solutions of fluroxypyr MHE, clopyralid MEA, and experimental compound mixtures were prepared by adding the stock solutions to the appropriate amount of dilution solution to form 12 mL spray solution with active ingredients in two- and three-way combinations. Formulated compounds were applied to the plant material with an overhead Mandel track sprayer equipped with a 8002E nozzles calibrated to deliver 187 L/ha over an application area of 0.503 square meters at a spray height of 18 inches (43 cm) above average plant canope. Control plants were sprayed in the same manner with the solvent blank.
(§4) The treated plants and control plants were placed in a greenhouse as described above and watered by sub-irrigation to prevent wash-off of the test compounds. After 3 weeks the condition of the test plants as compared with that of the control plants was determined visually and scored on a scale of 0 to 100 percent where 0 corresponds to no injury and 100 corresponds to complete kill.
(§5) Colby's equation was used to determine the herbicidal effects expected from the mixtures (Colby, S. R. 1967. Calculation of the synergistic and antagonistic response of herbicide combinations. Weeds 15:20-22.).
(§6) The following equation was used to calculate the expected activity of mixtures containing two active ingredients, A and B: Expected=A+B−(A×B/100) • A=observed efficacy of active ingredient A at the same concentration as used in the mixture. • B=observed efficacy of active ingredient B at the same concentration as used in the mixture.
(§7) The following equation was used to calculate the expected activity of mixtures containing three active ingredients, A, B, and C: Expected=A+B+C−(A×B+B×C+A×C)/100+(A×B×C)/10000 • A=observed efficacy of active ingredient A at the same concentration as used in the mixture. • B=observed efficacy of active ingredient B at the same concentration as used in the mixture. • C=observed efficacy of active ingredient C at the same concentration as used in the mixture.

[3] = tested on: Hordeum vulgare (winter barley); test: as above; conditions: after 3 weeks
Protocol: as §2, §3, §4, §5, §6, §7

[4] = tested on: Triticum aestivum (spring wheat); test: as above; conditions: after 3 weeks
Protocol: as §2, §3, §4, §5, §6, §7

[5] = Table 7, applied alone, 35 g ai/ha
[6] = Table 7, applied alone, 70 g ai/ha
[7] = Table 6, applied alone, 35 g ai/ha

| Compound | % Control PAPRH Ob (Papaver rhoeas; 35 g ai/ha) [%] | % Control PAPRH Ob (Papaver rhoeas; 70 g ai/ha) [%] | % Control GALAP Ob (Galium aparine; 35 g ai/ha) [%] | % Control GALAP Ob (Galium aparine; 70 g ai/ha) [%] | % Control HORVW Ob ([1]; 35 g ai/ha) [%] | % Control HORVW Ob ([1]; 70 g ai/ha) [%] | % Control TRZAS Ob ([2]; 35 g ai/ha) [%] | % Control TRZAS Ob ([2]; 70 g ai/ha) [%] | % Control MATCH Ob (Matricaria chamomilla; [5]) [%] | % Control MATCH Ob (Matricaria chamomilla; [6]) [%] | % Control HORVW Ob [3, 5] [%] | % Control HORVW Ob [3, 6] [%] | % Control TRZAS Ob [4, 5] [%] | % Control TRZAS Ob [4, 6] [%] | % Control MATCH Ob (Matricaria chamomilla; [7]) [%] | % Control HORVW Ob [3, 7] [%] | % Control TRZAS Ob [4, 7] [%] |
| --- | --- | --- | --- | --- | --- | --- | --- | --- | --- | --- | --- | --- | --- | --- | --- | --- | --- |
| COC(=O)c1nc(-c2ccc(Cl)c(OC)c2F)cc(N)c1Cl [Compound 42, 4-Amino-3-chloro-6-(4-chloro-2-fluoro-3-methoxyphenyl)pyridine-2-carboxylic acid methyl ester] | 100 | 100 | 99 | 100 | 0 | 15 | 35 | 40 | 50 | 60 | 25 | 30 | 30 | 45 |  |  |  |
| COC(=O)c1nc(-c2c(F)cc(Cl)c(OC)c2F)cc(N)c1Cl [Compound 58, 4-Amino-3-chloro-6-(4-chloro-2,6-difluoro-3-methoxyphenyl)pyridine-2-carboxylic acid, methyl ester] |  |  |  |  |  |  |  |  |  |  |  |  |  |  | 0 | 15 | 35 |
